Data published in patent EP4509511A1, “SUBSTITUTED SPIRO-ISOXAZOLINYL LACTAMS, SALTS THEREOF AND THEIR USE AS HERBICIDALLY ACTIVE SUBSTANCES” (Bayer Aktiengesellschaft, priority 2023, dated 2025).

How the values were obtained:
PHBPU = test: Herbicidal post-emergence action - Part II; assay type: in vivo, Pharbitis purpurea
Description: (§1) Seeds of mono- and dicotyledonous weed plants and crop plants were sown, in plastic or organic planting pots, in sandy loam, covered with soil and grown in a greenhouse under controlled growth conditions. 2 to 3 weeks after sowing, the test plants were sprayed in the single-leaf stage. The compounds according to the invention, formulated in form of wettable powders (WP) or as emulsifiable concentrates (EC), were sprayed onto the green plant parts as aqueous suspension or emulsion, with the addition of 0.5% of an additive, at an application rate of 600 1 of water/ha (converted). The test plants were placed in the greenhouse for ca. 3 weeks under optimum growth conditions, and then the effect of the preparations was assessed visually in comparison with untreated controls (herbicidal effect in percent (%): 100% effect = plants have died off, 0% effect = as control plants). Tables E1 to E10 below show the effects of selected compounds of the general formula (I) according to table 1 on various harmful plants and an application rate corresponding to 320 g/ha or below obtained by the experimental procedure mentioned above. Table E1a: post-emergence activity at 5g/ha against ABUTH in %

SETVI = test: Herbicidal post-emergence action - Part II; assay type: in vivo, Setaria viridis; details: 20 g/ha; Table E7b
Description: as §1

VERPE = test: Herbicidal post-emergence action - Part II; assay type: in vivo, Veronica persica
Description: as §1

AMARE = test: Herbicidal post-emergence action - Part II; assay type: in vivo, Amaranthus retroflexus
Description: as §1

POLCO = test: Herbicidal post-emergence action - Part II; assay type: in vivo, Polygonum convolvulus; details: 20 g/ha; Table E6
Description: as §1

ECHCG = test: Herbicidal post-emergence action - Part II; assay type: in vivo, Echinochloa crus-galli; details: 20 g/ha; Table E3a
Description: as §1

TRZAS = test: Post-emergence effects on crop plants; assay type: in vivo, Triticum aestivum; details: crop plant
Description: as §1, with “F1” for “E1”, “F5” for “E10”, “crop” for “harmful”, “[…]:” for “E1a:”, “ZEAMX” for “ABUTH”

MATIN = test: Herbicidal post-emergence action - Part II; assay type: in vivo, Matricaria inodora
Description: as §1

ABUTH = test: Herbicidal post-emergence action - Part II; assay type: in vivo, Abutilon theophrasti
Description: as §1

VIOTR = test: Herbicidal post-emergence action - Part II; assay type: in vivo, Viola tricolor
Description: as §1

ZEAMX = test: Post-emergence effects on crop plants; assay type: in vivo, Zea mays; details: crop plant
Description: as §1, with “F1” for “E1”, “F5” for “E10”, “crop” for “harmful”, “[…]:” for “E1a:”, “ZEAMX” for “ABUTH”

BRSNW = test: Post-emergence effects on crop plants; assay type: in vivo, Brassica napus; details: 5 g/ha; Table F5a; crop plant
Description: as §1, with “F1” for “E1”, “F5” for “E10”, “crop” for “harmful”, “[…]:” for “E1a:”, “ZEAMX” for “ABUTH”

| SMILES | post-emergence activity against PHBPU (PHBPU; 5 g/ha, Table E5a) | post-emergence activity against PHBPU (PHBPU; 20 g/ha, Table E5b) | post-emergence activity against SETVI (SETVI) | post-emergence activity against VERPE (VERPE; 5 g/ha, Table E8a) | post-emergence activity against VERPE (VERPE; 20 g/ha, Table E8b) | post-emergence activity against AMARE (AMARE; 5 g/ha, Table E2a) | post-emergence activity against AMARE (AMARE; 20 g/ha, Table E2b) | post-emergence activity against POLCO (POLCO) | post-emergence activity against ECHCG (ECHCG) | post-emergence activity against TRZAS (TRZAS; 5 g/ha, Table F2a) | post-emergence activity against TRZAS (TRZAS; 20 g/ha, Table F2b) | post-emergence activity against MATIN (MATIN; 5 g/ha, Table E4a) | post-emergence activity against MATIN (MATIN; 20 g/ha, Table E4b) | post-emergence activity against ABUTH (ABUTH; 5 g/ha, Table E1a) | post-emergence activity against ABUTH (ABUTH; 20 g/ha, Table E1b) | post-emergence activity against VIOTR (VIOTR; 5 g/ha, Table E9a) | post-emergence activity against VIOTR (VIOTR; 20 g/ha, Table E9b) | post-emergence activity against ZEAMX (ZEAMX; 5 g/ha, Table F1a) | post-emergence activity against ZEAMX (ZEAMX; 20 g/ha, Table F1b) | post-emergence activity against BRSNW (BRSNW) |
| --- | --- | --- | --- | --- | --- | --- | --- | --- | --- | --- | --- | --- | --- | --- | --- | --- | --- | --- | --- | --- |
| Cn1c(C(F)(F)F)cc(=O)n(-c2cc(C3=NOC4(CCN(Cc5cccc(F)c5F)C4=O)C3)c(Cl)cc2F)c1=O (racemic) [Compound I-33] | 100% | 100% | 100% | 100% | 100% | 100% | 100% | 100% | 100% | 20% | 20% | 90% | 100% | 100% | 100% | 100% | 100% | – | – | – |
| COC(=O)CN1CCC2(CC(c3cc(-n4c(=O)cc(C(F)(F)F)n(C)c4=O)c(F)cc3Cl)=NO2)C1=O (racemic) [Compound I-58] | 90% | 100% | – | – | 100% | 80% | 100% | 100% | – | 10% | 20% | – | – | – | 90% | 80% | 100% | 10% | 20% | 0% |
